Experiments:
[1] = target: reverse transcriptase du HIV1 (Human immunodeficiency virus type 1 group M subtype B, UniProt P04585); test: Reverse transcriptase activity of HIV1 incubated with NP derivatives, tested immediately; format: biochemical; conditions: témoin virus 11924
Procedure: (§1) La technique de culture et de titrage de la reverse-transcriptase du HIV est rappelée ci-après : Des lymphocytes humains, préalablement activés par la PHA (phytohémagglutinine) sont incubés dans un milieu nutritif (RPMI 1640 + sérum de veau foetal + antibiotiques + β-mercaptoéthanol 10⁻⁵M + 2»g/ml polybrene + sérum anti-interféron 1/2000 + IL2 10%). Après centrifugation, le culot cellulaire est mis en présence du HIV1 (10.000 cpm/10⁶ cellules) pendant 1 heure à 37°. Après lavage et centrifugation, les cellules sont resuspendues dans du milieu nutritif. Les surnageants de culture cellulaire sont suivis pendant plusieurs jours pour leur activité reverse transcriptase. Ils sont centrifugés 7 minutes à 95000 tours et le culot est lysé par du Triton® 0,1% (produit Touzart et Matignon). Un mélange réactionnel est ajouté (Tris, DTT (dithiothreitol), MgCl₂, KCl, PolyA, Oligo dT, ³HTTP, H₂O) et après 1 heure d'incubation à 37°C, la réaction est arrêtée avec du pyrophosphate de sodium et de l'acide nucléique de levure est ajouté pour aider la précipitation. De l'acide trichloracétique (TCA) est ajouté et la solution est laissée 15 minutes à 4°C. Après filtration sous vide avec des filtres millipores 0.45 »m et plusieurs lavages avec du TCA (0.5%), on procède au rinçage à l'éthanol, au sèchage en étuve 37° et enfin au comptage.
Le HIV1 est incubé 1 heure à 37° en présence d'AcN (D23, 621, N5-12), d'anticorps anti-NP (TNP11) ou en présence des dérivés NP (DNP-glycine et DNP-lysine). L'activité reverse transcriptase du HIV1 est testée immédiatement (cas des dérivés DNP-glycine et DNP-lysine). Alternativement, des lymphocytes humains sont infectés par le HIV1 préincubé avec les produits à tester, et la culture cellulaire est observée pendant 3 semaines par titrage de la reverse transcriptase. Durant cette période les cultures des lymphocytes humains ne contiennent pas d'anticorps ni d'antigène.

HIV1 = HIV1 infection of human lymphocytes preincubated with antibodies or NP derivatives, reverse transcriptase in supernatants; format: cell-based; conditions: for activité reverse transcriptase (surnageants de culture): dérivés NP, concentration not given
Procedure: as §1
Les lymphocytes humains, préalablement activés par la PHA, sont incubés en présence des AcN, des anticorps anti-NP et des dérivés NP (DNP-glycine, DNP-lysine) pendant une nuit à 37°C. Le lendemain, le culot cellulaire est mis en présence du HIV1 pendant 1 heure à 37°C au bain-marie et les cellules sont resuspendues dans du milieu nutritif en présence des produits à tester. Les surnageants de culture sont testés pour l'activité reverse transcriptase pendant 3 semaines.

SMILES: N[C@@H](CCCCNc1ccc([N+](=O)[O-])cc1[N+](=O)[O-])C(=O)O [DNP-lysine, DNP-Lysine]
- Activité reverse transcriptase ([1]; 10^-3M): 4652
- Activité reverse transcriptase ([1]; 10^-6M): 3932
- Activité reverse transcriptase ([1]; 10^-7M): 7240
- Activité reverse transcriptase ([1]; 10^-9M): 9262
- activité reverse transcriptase (surnageants de culture) (HIV1; 3 jours après l'infection, témoin virus 562): 936
- activité reverse transcriptase (surnageants de culture) (HIV1; 6 jours après l'infection, témoin virus 1274): 958
- activité reverse transcriptase (surnageants de culture) (HIV1; 10 jours après l'infection, témoin virus 94474): 1102
- activité reverse transcriptase (surnageants de culture) (HIV1; 13 jours après l'infection, témoin virus 63944): 1466
- activité reverse transcriptase (surnageants de culture) (HIV1; 18 jours après l'infection, témoin virus 73368): 958
- activité reverse transcriptase (surnageants de culture) (HIV1; 20 jours après l'infection, témoin virus 26840): 1268
- activité reverse transcriptase / infectivité virale par rapport au témoin virus (result in words) (HIV1; lymphocytes incubés avec les produits): peuvent conduire à une inhibition totale de l'infectivité virale
